Measurements as given in paper PMC4767141, “Discovery of Potent, Orally Bioavailable, Small-Molecule Inhibitors of WNT Signaling from a Cell-Based Pathway Screen” (Journal of Medicinal Chemistry, 2015).

Legend:
RSK3 = biological target: T1, RSK3 (Homo sapiens, UniProt Q15349); test: Millipore kinase panel; assay type: biochemical; conditions: read-out: % Control
T1 construct: purchased Millipore KinaseProfiler (kinases); Cerep (receptors and ion channels)

5-HT6 (h) = biological target: T2, 5-HT6 (h) (Homo sapiens, UniProt P50406); test: CEREP binding panel; conditions: agonist radioligand, read-out: % Inhibition of Control Specific Binding
T2 construct: purchased Millipore KinaseProfiler (kinases); Cerep (receptors and ion channels)
T2 sequence (P50406 whole entry): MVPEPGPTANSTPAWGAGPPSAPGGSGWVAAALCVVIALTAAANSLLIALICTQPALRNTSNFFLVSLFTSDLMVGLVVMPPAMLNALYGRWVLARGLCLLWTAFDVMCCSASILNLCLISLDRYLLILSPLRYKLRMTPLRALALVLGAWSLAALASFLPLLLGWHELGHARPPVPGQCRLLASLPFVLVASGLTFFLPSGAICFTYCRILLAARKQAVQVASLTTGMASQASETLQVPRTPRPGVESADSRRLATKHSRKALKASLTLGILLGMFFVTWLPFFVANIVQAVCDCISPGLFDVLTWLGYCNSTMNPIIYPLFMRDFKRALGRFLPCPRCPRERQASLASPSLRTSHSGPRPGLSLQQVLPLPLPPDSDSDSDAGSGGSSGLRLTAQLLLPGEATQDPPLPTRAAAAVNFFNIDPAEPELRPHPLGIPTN

BMX = biological target: T3, BMX (Homo sapiens, UniProt P51813); test: Millipore kinase panel; assay type: biochemical; conditions: read-out: % Control
T3 construct: purchased Millipore KinaseProfiler (kinases); Cerep (receptors and ion channels)
T3 sequence (P51813 whole entry): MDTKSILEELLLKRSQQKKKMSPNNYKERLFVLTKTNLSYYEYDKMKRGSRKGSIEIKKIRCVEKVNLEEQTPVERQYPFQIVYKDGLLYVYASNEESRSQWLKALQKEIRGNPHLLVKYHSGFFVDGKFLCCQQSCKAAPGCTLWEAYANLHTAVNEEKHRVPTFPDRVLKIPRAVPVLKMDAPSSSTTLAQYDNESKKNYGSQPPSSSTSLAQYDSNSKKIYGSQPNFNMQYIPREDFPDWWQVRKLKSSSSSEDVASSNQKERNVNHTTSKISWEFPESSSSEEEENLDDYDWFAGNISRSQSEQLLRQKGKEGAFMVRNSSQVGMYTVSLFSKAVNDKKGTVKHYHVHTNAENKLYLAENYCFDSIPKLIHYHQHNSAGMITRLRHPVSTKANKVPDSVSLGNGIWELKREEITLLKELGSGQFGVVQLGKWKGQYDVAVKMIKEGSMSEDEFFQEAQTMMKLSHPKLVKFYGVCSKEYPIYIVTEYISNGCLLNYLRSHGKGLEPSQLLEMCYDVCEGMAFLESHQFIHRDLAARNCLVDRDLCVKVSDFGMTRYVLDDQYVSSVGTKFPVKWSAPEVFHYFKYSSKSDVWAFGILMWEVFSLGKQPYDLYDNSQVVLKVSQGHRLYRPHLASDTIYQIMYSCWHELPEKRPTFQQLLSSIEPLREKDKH

CAMKIIBETA = biological target: T4, CAMKIIBETA (Homo sapiens, UniProt Q13554); test: Millipore kinase panel; assay type: biochemical; conditions: read-out: % Control
T4 construct: purchased Millipore KinaseProfiler (kinases); Cerep (receptors and ion channels)
T4 sequence (Q13554 whole entry): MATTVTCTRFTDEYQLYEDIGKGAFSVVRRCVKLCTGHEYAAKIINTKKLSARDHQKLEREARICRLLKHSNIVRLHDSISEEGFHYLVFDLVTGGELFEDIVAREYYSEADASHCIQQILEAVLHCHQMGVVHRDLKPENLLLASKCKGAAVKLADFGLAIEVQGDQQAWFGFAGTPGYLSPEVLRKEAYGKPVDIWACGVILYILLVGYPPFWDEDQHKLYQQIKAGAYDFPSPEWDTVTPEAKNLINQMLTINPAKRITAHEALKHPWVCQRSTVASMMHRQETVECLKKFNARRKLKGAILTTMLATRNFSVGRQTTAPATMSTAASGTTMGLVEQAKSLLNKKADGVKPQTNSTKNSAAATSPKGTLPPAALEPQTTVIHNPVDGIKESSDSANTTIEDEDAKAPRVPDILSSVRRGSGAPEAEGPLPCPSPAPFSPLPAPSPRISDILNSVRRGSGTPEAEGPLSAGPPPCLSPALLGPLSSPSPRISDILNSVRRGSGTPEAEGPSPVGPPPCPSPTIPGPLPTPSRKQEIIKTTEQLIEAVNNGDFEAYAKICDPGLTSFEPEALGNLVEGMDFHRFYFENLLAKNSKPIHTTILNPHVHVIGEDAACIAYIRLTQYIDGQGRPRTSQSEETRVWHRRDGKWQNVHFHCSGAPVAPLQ

EPHA7 = biological target: T5, EPHA7 (Homo sapiens, UniProt Q15375); test: Millipore kinase panel; assay type: biochemical; conditions: read-out: % Control
T5 construct: purchased Millipore KinaseProfiler (kinases); Cerep (receptors and ion channels)

ROS = biological target: T6, ROS (Homo sapiens, UniProt P08922); test: Millipore kinase panel; assay type: biochemical; conditions: read-out: % Control
T6 construct: purchased Millipore KinaseProfiler (kinases); Cerep (receptors and ion channels)

CXCR2 (IL-8B) (h) = biological target: T7, CXCR2 (IL-8B) (h) (Homo sapiens, UniProt P25025); test: CEREP binding panel; conditions: agonist radioligand, read-out: % Inhibition of Control Specific Binding
T7 construct: purchased Millipore KinaseProfiler (kinases); Cerep (receptors and ion channels)
T7 sequence (P25025 whole entry): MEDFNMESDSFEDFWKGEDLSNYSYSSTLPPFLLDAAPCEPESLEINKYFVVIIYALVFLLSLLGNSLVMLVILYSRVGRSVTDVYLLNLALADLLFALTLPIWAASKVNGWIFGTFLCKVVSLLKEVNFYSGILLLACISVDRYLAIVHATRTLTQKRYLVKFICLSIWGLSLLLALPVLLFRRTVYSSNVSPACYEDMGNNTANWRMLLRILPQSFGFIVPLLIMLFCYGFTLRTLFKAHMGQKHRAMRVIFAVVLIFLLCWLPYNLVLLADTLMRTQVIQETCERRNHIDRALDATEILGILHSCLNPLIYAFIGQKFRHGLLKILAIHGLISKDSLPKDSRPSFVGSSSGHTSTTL

SAPK4 = biological target: T8, SAPK4 (Homo sapiens, UniProt O15264); test: Millipore kinase panel; assay type: biochemical; conditions: read-out: % Control
T8 construct: purchased Millipore KinaseProfiler (kinases); Cerep (receptors and ion channels)
T8 sequence (O15264 whole entry): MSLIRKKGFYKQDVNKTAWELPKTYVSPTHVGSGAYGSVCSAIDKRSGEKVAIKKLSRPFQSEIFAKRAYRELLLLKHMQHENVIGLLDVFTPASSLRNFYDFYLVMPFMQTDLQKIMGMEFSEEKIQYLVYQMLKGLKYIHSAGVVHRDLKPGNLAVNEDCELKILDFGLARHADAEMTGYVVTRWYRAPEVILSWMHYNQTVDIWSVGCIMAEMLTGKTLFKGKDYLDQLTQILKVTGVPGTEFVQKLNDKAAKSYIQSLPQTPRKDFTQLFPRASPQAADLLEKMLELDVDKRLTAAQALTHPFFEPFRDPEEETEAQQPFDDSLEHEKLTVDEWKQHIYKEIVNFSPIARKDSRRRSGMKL

DRAK1 = biological target: T9, DRAK1 (Homo sapiens, UniProt Q9UEE5); test: Millipore kinase panel; assay type: biochemical; conditions: read-out: % Control
T9 construct: purchased Millipore KinaseProfiler (kinases); Cerep (receptors and ion channels)

MSK2 = biological target: T10, MSK2 (Homo sapiens, UniProt O75676); test: Millipore kinase panel; assay type: biochemical; conditions: read-out: % Control
T10 construct: purchased Millipore KinaseProfiler (kinases); Cerep (receptors and ion channels)

EPHB3 = biological target: T11, EPHB3 (Homo sapiens, UniProt P54753); test: Millipore kinase panel; assay type: biochemical; conditions: read-out: % Control
T11 construct: purchased Millipore KinaseProfiler (kinases); Cerep (receptors and ion channels)

SGK = biological target: T12, SGK (Homo sapiens, UniProt O00141); test: Millipore kinase panel; assay type: biochemical; conditions: read-out: % Control
T12 construct: purchased Millipore KinaseProfiler (kinases); Cerep (receptors and ion channels)

B2 (h) = biological target: T13, B2 (h) (Homo sapiens, UniProt P30411); test: CEREP binding panel; conditions: agonist radioligand, read-out: % Inhibition of Control Specific Binding
T13 construct: purchased Millipore KinaseProfiler (kinases); Cerep (receptors and ion channels)
T13 sequence (P30411 whole entry): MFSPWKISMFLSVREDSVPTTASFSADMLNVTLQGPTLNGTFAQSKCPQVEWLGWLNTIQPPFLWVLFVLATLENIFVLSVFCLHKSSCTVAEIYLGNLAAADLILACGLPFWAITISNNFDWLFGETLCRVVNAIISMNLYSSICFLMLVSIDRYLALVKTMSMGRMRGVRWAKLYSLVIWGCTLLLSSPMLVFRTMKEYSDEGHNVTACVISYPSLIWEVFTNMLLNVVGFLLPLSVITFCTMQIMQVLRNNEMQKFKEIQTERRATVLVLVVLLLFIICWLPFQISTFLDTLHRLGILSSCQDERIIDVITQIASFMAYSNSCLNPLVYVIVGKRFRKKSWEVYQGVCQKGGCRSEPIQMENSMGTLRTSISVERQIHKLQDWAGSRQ

BRSK2 = biological target: T14, BRSK2 (Homo sapiens, UniProt Q8IWQ3); test: Millipore kinase panel; assay type: biochemical; conditions: read-out: % Control
T14 construct: purchased Millipore KinaseProfiler (kinases); Cerep (receptors and ion channels)
T14 sequence (Q8IWQ3 whole entry): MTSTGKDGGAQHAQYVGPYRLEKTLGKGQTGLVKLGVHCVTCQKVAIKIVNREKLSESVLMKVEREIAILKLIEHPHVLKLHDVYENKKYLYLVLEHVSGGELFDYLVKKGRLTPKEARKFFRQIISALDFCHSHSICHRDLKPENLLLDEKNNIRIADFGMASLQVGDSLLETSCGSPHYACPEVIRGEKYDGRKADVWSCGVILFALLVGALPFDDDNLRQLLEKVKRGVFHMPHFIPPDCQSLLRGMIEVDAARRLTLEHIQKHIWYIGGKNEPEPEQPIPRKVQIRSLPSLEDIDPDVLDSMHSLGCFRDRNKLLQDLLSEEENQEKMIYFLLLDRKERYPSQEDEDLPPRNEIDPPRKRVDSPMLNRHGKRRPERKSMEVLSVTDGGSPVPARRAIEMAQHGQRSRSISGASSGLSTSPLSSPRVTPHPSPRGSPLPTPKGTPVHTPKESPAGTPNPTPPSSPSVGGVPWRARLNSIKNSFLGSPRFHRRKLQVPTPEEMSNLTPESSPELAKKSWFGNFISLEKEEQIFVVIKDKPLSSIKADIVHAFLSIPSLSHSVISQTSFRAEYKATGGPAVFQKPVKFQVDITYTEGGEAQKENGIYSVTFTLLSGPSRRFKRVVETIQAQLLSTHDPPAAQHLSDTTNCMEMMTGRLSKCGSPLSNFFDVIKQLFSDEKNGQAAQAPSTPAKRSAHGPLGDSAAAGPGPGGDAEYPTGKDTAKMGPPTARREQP

CK1GAMMA1 = biological target: T15, CK1GAMMA1 (Homo sapiens, UniProt Q9HCP0); test: Millipore kinase panel; assay type: biochemical; conditions: read-out: % Control
T15 construct: purchased Millipore KinaseProfiler (kinases); Cerep (receptors and ion channels)

JNK3 = biological target: T16, JNK3 (Homo sapiens, UniProt P53779); test: Millipore kinase panel; assay type: biochemical; conditions: read-out: % Control
T16 construct: purchased Millipore KinaseProfiler (kinases); Cerep (receptors and ion channels)

IKKALPHA = biological target: T17, IKKALPHA (Homo sapiens, UniProt O15111); test: Millipore kinase panel; assay type: biochemical; conditions: read-out: % Control
T17 construct: purchased Millipore KinaseProfiler (kinases); Cerep (receptors and ion channels)
T17 sequence (O15111 whole entry): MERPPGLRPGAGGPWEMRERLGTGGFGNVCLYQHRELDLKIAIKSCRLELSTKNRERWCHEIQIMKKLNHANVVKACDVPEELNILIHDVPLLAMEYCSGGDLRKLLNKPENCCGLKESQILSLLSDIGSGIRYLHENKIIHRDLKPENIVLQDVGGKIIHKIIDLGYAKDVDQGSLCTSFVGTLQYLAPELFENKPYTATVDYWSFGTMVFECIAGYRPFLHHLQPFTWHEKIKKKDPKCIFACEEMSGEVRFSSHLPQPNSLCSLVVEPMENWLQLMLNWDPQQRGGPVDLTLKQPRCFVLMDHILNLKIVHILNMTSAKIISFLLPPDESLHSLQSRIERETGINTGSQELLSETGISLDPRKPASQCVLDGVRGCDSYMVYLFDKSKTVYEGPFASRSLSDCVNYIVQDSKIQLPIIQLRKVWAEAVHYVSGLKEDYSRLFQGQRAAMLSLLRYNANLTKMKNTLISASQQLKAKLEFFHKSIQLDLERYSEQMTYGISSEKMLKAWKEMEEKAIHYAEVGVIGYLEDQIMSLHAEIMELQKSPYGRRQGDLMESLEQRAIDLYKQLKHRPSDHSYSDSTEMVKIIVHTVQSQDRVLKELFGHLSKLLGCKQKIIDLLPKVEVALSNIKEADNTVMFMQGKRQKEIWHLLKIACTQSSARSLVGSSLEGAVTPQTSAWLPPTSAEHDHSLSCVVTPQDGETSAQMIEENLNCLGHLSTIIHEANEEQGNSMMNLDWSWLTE

EPHA3 = biological target: T18, EPHA3 (Homo sapiens, UniProt P29320); test: Millipore kinase panel; assay type: biochemical; conditions: read-out: % Control
T18 construct: purchased Millipore KinaseProfiler (kinases); Cerep (receptors and ion channels)

NTS1 (NT1) (h) = biological target: T19, NTS1 (NT1) (h) (Homo sapiens, UniProt P30989); test: CEREP binding panel; conditions: agonist radioligand, read-out: % Inhibition of Control Specific Binding
T19 construct: purchased Millipore KinaseProfiler (kinases); Cerep (receptors and ion channels)
T19 sequence (P30989 whole entry): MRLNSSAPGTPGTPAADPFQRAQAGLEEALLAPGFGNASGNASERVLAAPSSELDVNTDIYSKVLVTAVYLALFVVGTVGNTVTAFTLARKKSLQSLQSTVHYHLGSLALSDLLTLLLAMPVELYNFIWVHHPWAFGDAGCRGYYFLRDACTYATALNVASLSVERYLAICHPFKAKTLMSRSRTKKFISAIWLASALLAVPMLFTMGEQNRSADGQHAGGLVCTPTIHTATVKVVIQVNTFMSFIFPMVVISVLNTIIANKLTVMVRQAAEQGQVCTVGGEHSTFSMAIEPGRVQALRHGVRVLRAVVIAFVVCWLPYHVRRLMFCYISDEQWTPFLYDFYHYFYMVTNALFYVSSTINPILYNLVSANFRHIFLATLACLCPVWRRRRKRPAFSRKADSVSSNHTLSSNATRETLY

CHK2(R145W) = biological target: T20, CHK2(R145W) (Homo sapiens, UniProt O96017, R145W); test: Millipore kinase panel; assay type: biochemical; conditions: read-out: % Control
T20 construct: purchased Millipore KinaseProfiler (kinases); Cerep (receptors and ion channels)

[1] = tested on: PI3 KINASE (P110A(E545K)/P85A); test: Millipore kinase panel; assay type: biochemical; conditions: 1 μM, ATP at Km
Protocol: (§1) Supplementary Table S3. Activity of compound 44 tested 1 μM across a panel of 209 non-mutated kinases (Millipore Panel: data expressed as percentage control response versus each kinase tested at its respective Km for ATP). No inhibition was considered sufficient to warrant follow-up with IC50 determination.
(§2) % Inhibition of % Inhibition of […]
(§3) α1 (non-selective) (antagonist radioligand) 8 NTS1 (NT1) (h) (agonist radioligand) -8 α2 (non-selective) (antagonist radioligand) 0 δ2 (DOP) (h) (agonist radioligand) 22 β1 (h) (agonist radioligand) 5 κ (KOP) (agonist radioligand) 72 […]
(§4) AT1 (h) (antagonist radioligand) 8 NOP (ORL1) (h) (agonist radioligand) 3 BZD (central) (agonist radioligand) 18 TP (h) (TXA2/PGH2) (antagonist radioligand) NT B2 (h) (agonist radioligand) 0 5-HT1A (h) (agonist radioligand) 19 […]
(§5) CCK1 (CCKA) (h) (agonist radioligand) 2 5-HT2A (h) (antagonist radioligand) 1 D1 (h) (antagonist radioligand) 7 5-HT2B (h) (agonist radioligand) 6
(§6) D2S (h) (antagonist radioligand) 5 5-HT3 (h) (antagonist radioligand) 9 ETA (h) (agonist radioligand) -9 5-HT5a (h) (agonist radioligand) 1
(§7) GABA (non-selective) (agonist radioligand) 5 5-HT6 (h) (agonist radioligand) 3 GAL2 (h) (agonist radioligand) 2 5-HT7 (h) (agonist radioligand) 1
(§8) CXCR2 (IL-8B) (h) (agonist radioligand) -6 sst (non-selective) (agonist radioligand) 4 CCR1 (h) (agonist radioligand) -4 VPAC1 (VIP1) (h) (agonist radioligand) 0 H1 (h) (antagonist radioligand) 16 V1a (h) (agonist radioligand) -7
(§9) H2 (h) (antagonist radioligand) -2 Ca2+ channel (L, verapamil site) (phenylalkylamine) (antagonist radioligand) 7 MC4 (h) (agonist radioligand) 4 KV channel (antagonist radioligand) -13 MT1 (ML1A) (h) (agonist radioligand) 34 SKCa channel (antagonist radioligand) 3 M1 (h) (antagonist radioligand) 21 Na+ channel (site 2) (antagonist radioligand) 29 M2 (h) (antagonist radioligand) 38 Cl- channel (GABA-gated) (antagonist radioligand) 31 M3 (h) (antagonist radioligand) 46 norepinephrine transporter (h) (antagonist radioligand) 14 NK2 (h) (agonist radioligand) -17 dopamine transporter (h) (antagonist radioligand) 40 5-HT transporter (h) (antagonist radioligand) 70 […]
(§10) receptors, ion channels and enzymes (CEREP). Results are expressed as percent inhibition of control specific binding. […]
(§11) kinases (Millipore Panel: data expressed as percentage control response versus each kinase tested […]
(§12) at its respective Km for ATP).
(§13) Supplementary Figure S1. Dose-dependent reduction of endogenous cMYC mRNA measured by RT-PCR (n = 8) after treatment of 7dF3 cells with 74 at the stated concentration for 2 h […]

[2] = tested on: PI3 KINASE (P110A(H1047R)/P85A); test: Millipore kinase panel; assay type: biochemical; conditions: 1 μM, ATP at Km
Protocol: as §1, §2, §3, §4, §5, §6, §7, §8, §9, §10, §11, §12, §13

PI3 KINASE (P110A/P65A) = test: Millipore kinase panel; assay type: biochemical; conditions: 1 μM, ATP at Km
Protocol: as §1, §2, §3, §4, §5, §6, §7, §8, §9, §10, §11, §12, §13

CYP450 2D6 = CYP450 2D6 (Homo sapiens, UniProt P10635); test: CYP450 inhibition; assay type: in vitro ADME
SYK = biological target: T21, SYK (Homo sapiens, UniProt P43405); test: Millipore kinase panel; assay type: biochemical; conditions: read-out: % Control
T21 construct: purchased Millipore KinaseProfiler (kinases); Cerep (receptors and ion channels)

TSSK2 = biological target: T22, TSSK2 (Homo sapiens, UniProt Q96PF2); test: Millipore kinase panel; assay type: biochemical; conditions: read-out: % Control
T22 construct: purchased Millipore KinaseProfiler (kinases); Cerep (receptors and ion channels)

Structure (SMILES) | remaining activity at 1 µM (RSK3) [%] | inhibition at 10 µM (5-HT6 (h)) [%] | remaining activity at 1 µM (BMX) [%] | remaining activity at 1 µM (CAMKIIBETA) [%] | remaining activity at 1 µM (EPHA7) [%] | remaining activity at 1 µM (ROS) [%] | inhibition at 10 µM (CXCR2 (IL-8B) (h)) [%] | remaining activity at 1 µM (SAPK4) [%] | remaining activity at 1 µM (MSK2) [%] | remaining activity at 1 µM (EPHB3) [%] | remaining activity at 1 µM (SGK) [%] | inhibition at 10 µM (B2 (h)) [%] | remaining activity at 1 µM (BRSK2) [%] | remaining activity at 1 µM (CK1GAMMA1) [%] | remaining activity at 1 µM (JNK3) [%] | remaining activity at 1 µM (IKKALPHA) [%] | remaining activity at 1 µM (EPHA3) [%] | inhibition at 10 µM (NTS1 (NT1) (h)) [%] | other results
O=C1NCCC12CCN(c1c(Cl)cncc1-c1ccc(N3CCOCC3)cc1)CC2 [Compound 44, 8-(3-Chloro-5-(4-morpholin-4-ylphenyl)pyridin-4-yl)-2,8-diazaspiro[4.5]decan-1-one] | 1 | -5 | -2 | 0 | -2 | 2 | -2 | -2 | 0 | 17 | 16 | 5 | 14 | 2 | 11 | 22 | 10 | -4 | remaining activity at 1 µM (DRAK1): 4%
Cn1cc(-c2ccc(-c3cncc(Cl)c3N3CCC4(CCNC4=O)CC3)cc2)cn1 [Compound 74, 8-(3-Chloro-5-(4-(1-methyl-1H-pyrazol-4-yl)phenyl)pyridin-4-yl)-2,8-diazaspiro[4.5]decan-1-one] | -5 | 3 | -2 | 8 | 6 | 7 | -6 | -4 | -6 | -2 | -4 | 0 | -4 | -25 | -7 | 4 | 6 | -8 | remaining activity at 1 µM (CHK2(R145W)): 3%; % Control [1]: -1%; % Control [2]: 2%; % Control (PI3 KINASE (P110A/P65A)): 0%; IC50 (CYP450 2D6): > 20 µM; remaining activity at 1 µM (SYK): 5%; remaining activity at 1 µM (TSSK2): -1%
